Assay results taken from patent publication US20190209568A1, “METHOD OF PREVENTING OR TREATING HEARING LOSS” (SUPPORT-VENTURE GMBH, priority 2016, published 2019).

System: auditory hair cells of organ of Corti (OC) explants
Assay: Protection of auditory hair cells from gentamicin-induced loss in organ of Corti explant culture (hair cell counting, basal turn)
Format: cell-based, C57bl/6j mice
Conditions: for hair cells lost / protection from loss of hair cells / loss of hair cells: 24 hours; for protection against gentamicin-induced loss of hair cells (in words): Example 1: 5 μM pioglitazone, 30 μM pamapimod, or both, with gentamicin, 24 hr in culture; for loss of hair cells: p5 mouse OC explants, basal turn
Procedure: All animal procedures were carried out according to protocols approved by the Kantonales Veterinäramt, Basel, Switzerland. Postnatal day 5 (p5) C57bl/6j were used for the studies. Studies were performed in vitro, using organ of Corti (OC) explants from p5 animals. Animals were sacrificed and the cochleae carefully dissected to separate the organ of Corti from the spiral ganglion, stria vascularis and Reissner's membrane [Sobkowicz H M, Loftus J M, Slapnick S M. Acta Otolaryngol Suppl. 1993; 502:3-36].
OCs were harvested and then placed in culture medium [Dulbecco's Modified Eagle Medium supplemented with 10% FCS, 25 mM HEPES and 30 U/ml penicillin (Invitrogen, Carlsbad, 20 CA, USA)] and incubated for 24 hours at 37° C. in an atmosphere of 95% O2/5% CO2. After that period, the culture medium was replaced with fresh medium containing no compound or 50 μM gentamicin alone or 50 μM gentamicin with either 5 μM pioglitazone, 30 μM pamapimod, or 5 μM pioglitazone+30 μM pamapimod, and incubated for a further 24 hours at 37° C. Ten OC explants were used for each treatment condition.
After incubation with compounds, the OCs were fixed in 4% paraformaldehyde, washed and then stained with a fluorescein (FITC)-conjugated phalloidin to detect inner and outer hair cells. After staining, the OCs were visualized and photographed using a fluorescence microscope (Olympus FSX100). Auditory hair cells were quantified for the basal turn of each organ of Corti in 3 fields corresponding to 80 hair cells each. The average values for the three fields were then averaged for the 10 OCs used for each condition. Significant differences between treatment groups in numbers of hair cells were determined using analysis of variance (ANOVA) followed by the least significant difference (LSD) post-hoc test (Stat View 5.0). Differences associated with P values of less than 0.05 were considered to be statistically significant. All data are presented as mean±SD.
OCs were harvested and then placed in culture medium [Dulbecco's Modified Eagle Medium supplemented with 10% FCS, 25 mM HEPES and 30 U/ml penicillin (Invitrogen, Carlsbad, 20 CA, USA)] and incubated for 24 hours at 37° C. in an atmosphere of 95% O2/5% CO2. After that period, the culture medium was replaced with fresh medium containing no compound or 100 µM gentamicin alone or 100 μM gentamicin with either 1 μM pioglitazone, 1 μM pamapimod, or 1 μM pioglitazone+1 μM pamapimod, and incubated for a further 24 hours at 37° C. The gentamicin concentration of 100 μM was determined as that concentration that leads to 50% loss of hair cells. Batch to batch variation in the activity of gentamicin requires that the concentration used for specific experiments leading to 50% hair cell loss be predefined in pilot experiments for each batch. Ten OC explants were used for each treatment condition.

Compound | hair cells lost (Example 1, FIG. 1: 30 μM pamapimod (micronized, Dv50=3 μm) with 50 μM gentamicin) | protection against gentamicin-induced loss of hair cells (in words) | protection from loss of hair cells (Example 2, FIG. 2: 1 μM pamapimod with 100 μM gentamicin) | loss of hair cells (Example 1, FIG. 1: 50 μM gentamicin alone) | loss of hair cells (Example 2, FIG. 2: 100 μM gentamicin alone) | hair cells lost (Example 1, FIG. 1: 5 μM pioglitazone (micronized, Dv50=4 μm) with 50 μM gentamicin) | protection from loss of hair cells (Example 2, FIG. 2: 1 μM pioglitazone with 100 μM gentamicin)
Cn1c(=O)c(Oc2ccc(F)cc2F)cc2cnc(NC(CCO)CCO)nc21 [pamapimod, 6-(2,4-Difluorophenoxy)-2-[3-hydroxy-1-(2-hydroxyethyl)-propylamino]-8-methyl-8H-pyrido[2,3-d]pyrimidin-7-one] | approximately 20% | partially prevented the loss of hair cells | approximately 30% | – | – | – | –
gentamicin | – | – | – | approximately 50% | approximately 50% | – | –
CCc1ccc(CCOc2ccc(CC3SC(=O)NC3=O)cc2)nc1 (centres unmarked) [pioglitazone] | – | partially prevented the loss of hair cells | – | – | – | approximately 20% | approximately 40%
